Where “and” joins values, the source holds several entries; their conditions need not be identical. Equal entries are not always repeated.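 All cell lines were grown in 96-well plates and treated with compound for 48 hours. Abbreviation: GI50, concentration required for 50% inhibition of growth. TGI: concentration producing complete growth inhibition.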
Key:
Assay in all cases: NCI-60 cell line screen, 48 h
OVCAR-8 ovarian = tested on: OVCAR-8 ovarian
MCF7 breast = tested on: MCF7 breast
RXF 393 renal = tested on: RXF 393 renal
K-562 leukemia = tested on: K-562 leukemia
HCT-15 colon = tested on: HCT-15 colon
HT29 colon = tested on: HT29 colon
A549 NSCLC = tested on: A549 NSCLC
EKVX NSCLC = tested on: EKVX NSCLC
MALME-3M melanoma = tested on: MALME-3M melanoma
ACHN renal = tested on: ACHN renal

Compound	GI50 (OVCAR-8 ovarian)	TGI (OVCAR-8 ovarian)	GI50 (MCF7 breast) [µM]	TGI (MCF7 breast)	GI50 (RXF 393 renal)	TGI (RXF 393 renal)	GI50 (K-562 leukemia) [µM]	TGI (K-562 leukemia)	GI50 (HCT-15 colon) [µM]	TGI (HCT-15 colon)	GI50 (HT29 colon) [µM]	TGI (HT29 colon) [µM]	GI50 (A549 NSCLC)	TGI (A549 NSCLC)	GI50 (EKVX NSCLC) [µM]	TGI (EKVX NSCLC)	GI50 (MALME-3M melanoma)	TGI (MALME-3M melanoma)	GI50 (ACHN renal) [µM]	TGI (ACHN renal)
Cc1cc(NC(=O)NCc2ccc(N3C(N)=NC(N)=NC3(C)C)cc2)ccc1S(=O)(=O)F	6.76 µM	> 100 µM	1.93	> 100 µM	51.2 µM	> 100 µM	0.484	> 100 µM	11.2	> 100 µM	0.37	> 100	0.528 µM	> 32.1 µM	13.8	> 100 µM	29 µM	98.5 µM	46.2	> 100 µM
CC(C)(Oc1ccc(-c2cccc3ccccc23)cc1)C(=O)O	–	> 100 µM	–	> 100 µM	–	> 100 µM	–	> 100 µM	–	> 100 µM	–	> 100	–	> 100 µM	–	> 100 µM	–	> 100 µM	–	> 100 µM
Nc1nc(SCc2ccccc2CCl)c2[nH]cnc2n1	28.2 µM	> 100 µM	12.2	28.4 µM	14 µM	28.7 µM	32.4	> 100 µM	14.5	31.1 µM	17.1	35.6	–	–	12.9	25.9 µM	12.5 µM	28.8 µM	18.6	74.6 µM
CCN(CC)c1ccc(/C=N/NC(=O)Cc2ccc(Nc3ccnc(C(F)(F)F)c3)cc2)c(O)c1	0.757 µM	> 100 µM	0.461	> 100 µM	1.03 µM	98.5 µM	0.49	> 100 µM	0.373	> 100 µM	0.638	> 68.2	1.19 µM	> 100 µM	0.98	> 77 µM	1.18 µM	> 26 µM	0.399	> 26.9 µM
O=c1[nH]c2cc(Cl)ccc2nc1/C(=N\Nc1ccccc1)C(O)c1ccc2c(c1)OCO2 (stereo not given)	–	> 100 µM	–	> 100 µM	–	> 100 µM	–	> 100 µM	–	> 100 µM	–	> 100	–	> 100 µM	–	> 100 µM	–	> 100 µM	–	> 100 µM
NNc1c(C(N)=O)c2c(N)ncnc2n1C1OC(CO)C(O)C1O (stereo not given)	0.0178 µM and 0.0343 µM	11.5 µM and 3.51 µM	0.0729	0.179 µM and 1.29 µM	0.0254 µM and < 0.0143 µM	0.186 µM and 0.125 µM	0.0199	16.3 µM and > 100 µM	0.0292	1.5 µM and 3.04 µM	< 0.0118	–	0.0336 µM and 0.0924 µM	12.7 µM and 3.44 µM	0.208	0.841 µM and 4.36 µM	0.0205 µM and 0.0363 µM	0.084 µM and 0.171 µM	0.0167	0.101 µM and 0.499 µM
CC1[C@@]2(CCC(C)(C)O2)O[C@@H]2C=C3C4CCC5Cc6nc7c(nc6C[C@@]5(C)C4C[C@H](O)[C@@]3(C)[C@]12O)CC1CCC2C3=C[C@H]4O[C@@]5(O[C@@](C)(CO)C[C@@H]5O)C(C)[C@@]4(O)[C@]3(C)[C@@H](O)CC2[C@]1(C)C7 (stereo not given in full)	0.426 µM	1.2 µM	–	0.524 µM	< 0.000365 µM	–	0.0103	0.44 µM and 0.445 µM	0.00907	0.732 µM and 0.075 µM	0.00179	–	0.0028 µM	0.711 µM	0.00521	0.875 µM and 0.462 µM	0.0101 µM	–	–	–
C=C1OC2OC(C)C(NC(=O)OCC(Cl)(Cl)Cl)C(OC(C)=O)C2O1 (stereo not given)	–	> 100 µM	–	> 100 µM	–	> 100 µM	–	> 100 µM	–	> 100 µM	–	> 100	–	> 100 µM	–	> 100 µM	–	> 100 µM	–	> 100 µM
COc1ccc(-c2nsc3c2NC(=O)CC3c2ccsc2)cc1 (stereo not given)	0.409 µM	> 25.2 µM	0.32	> 100 µM	0.367 µM	> 100 µM	0.0469	> 100 µM	0.101	> 100 µM	0.0643	32.8	0.211 µM	> 100 µM	–	–	0.135 µM	72.9 µM	1.06	> 100 µM
CCCCCCCCCCCCCCCCCc1nc(Cl)nc(Cl)c1Cl	–	> 100 µM	–	> 100 µM	–	> 100 µM	–	> 100 µM	–	> 100 µM	–	> 100	–	> 100 µM	–	–	–	> 100 µM	–	> 100 µM
CC1(C)N=C(N)N=C(N)N1c1ccc(CCCC(=O)Nc2ccc(S(=O)(=O)F)cc2)cc1	12.9 µM	> 100 µM	5.23	> 100 µM	4.22 µM	> 100 µM	2.13	> 100 µM	39.3	> 100 µM	2.9	> 100	9.82 µM	> 100 µM	–	–	24.2 µM	> 100 µM	58.7	> 100 µM
COc1cccc(C2CC(=O)Nc3c2c(C)nn3-c2nc3ccccc3[nH]2)c1OC (stereo not given)	4.41 µM	> 100 µM	3.36	> 100 µM	2.91 µM	10.6 µM	3.89	> 100 µM	3.45	26.8 µM	4.35	> 47.6	3.5 µM	28.6 µM	–	–	7.97 µM	39 µM	3.98	> 90.9 µM
N[C@@H]1CCCN(c2c(Br)cnc3[nH]cc(NC(=O)C4CC4)c23)C1	0.51 µM	> 100 µM	0.123	> 100 µM	0.0618 µM	0.27 µM	0.303	> 100 µM	0.54	> 100 µM	1.01	> 100	1.5 µM	> 100 µM	2.32	> 31.6 µM	1.27 µM	> 100 µM	–	–
Cn1c(=O)c(-c2ccccc2Cl)cc2cnc(NC3CCOCC3)nc21	10.2 µM	> 25 µM	> 25	> 25 µM	5.19 µM	> 23.9 µM	9.36	> 25 µM	9.82	> 25 µM	7.02	> 25	18.2 µM	> 25 µM	–	–	7.08 µM	> 22.3 µM	4.64	> 25 µM

— PubChem BioAssay (NCI)
